Assay results taken from patent publication US11414413B2, “Heterocyclic compound as JAK inhibitor, and salts and therapeutic use thereof” (Suzhou Longbiotech Pharmaceuticals Co., Ltd., priority 2016, dated 2022).

Tests used:
Type in all cases: biochemical
[1] = biological target: JAK1 (Homo sapiens (Human), UniProt P23458); assay: Inhibition of JAK1, luminescence kinase assay (ADP-Glo); conditions: purified recombinant JAK1
Method: (§1) The study of the effect of compounds on the activity of purified recombinant JAK was performed by studying the inhibitory activity of the compounds on JAK from the enzymatic level. The experimental principle is to use a luminescence kinase assay to detect the ADP content produced by the reaction of JAK with the substrate Poly (4:1 Glu, Tyr) peptide: after ADP is converted to ATP, ATP can act as a substrate for the Ultra-Glo luciferase catalytic reaction, producing an optical signal. The luminescence signal is positively correlated with the amount of ADP and kinase activity. Therefore, the inhibitory effect of the compounds on the recombinant JAK was determined by observing the luminescence signal produced by the reaction of JAK and the substrate, and was expressed by IC50.
(§2) Experimental method: 10 different concentrations of compounds were incubated with JAK1, JAK2 and JAK3, respectively, for 60 minutes at 37° C. The substrate and ATP were then added, mixed, and reacted at 37° C. for 50 minutes. 25 μl of ADP-Glo™ was added and mixed for 2 minutes. The reaction was carried out for 50 minutes at room temperature. Further, 50 μl of the detection reagent was added and mixed for 2 minutes, and incubated at room temperature for 50 minutes, and detected by a chemiluminometer.

[2] = biological target: JAK3 (Homo sapiens (Human), UniProt P52333); assay: Inhibition of JAK3, luminescence kinase assay (ADP-Glo); conditions: purified recombinant JAK3
Method: as §1, §2

[3] = biological target: JAK2 (Homo sapiens (Human), UniProt O60674); assay: Inhibition of JAK2, luminescence kinase assay (ADP-Glo); conditions: purified recombinant JAK2
Method: as §1, §2

JAK3, sequence (P52333 whole entry): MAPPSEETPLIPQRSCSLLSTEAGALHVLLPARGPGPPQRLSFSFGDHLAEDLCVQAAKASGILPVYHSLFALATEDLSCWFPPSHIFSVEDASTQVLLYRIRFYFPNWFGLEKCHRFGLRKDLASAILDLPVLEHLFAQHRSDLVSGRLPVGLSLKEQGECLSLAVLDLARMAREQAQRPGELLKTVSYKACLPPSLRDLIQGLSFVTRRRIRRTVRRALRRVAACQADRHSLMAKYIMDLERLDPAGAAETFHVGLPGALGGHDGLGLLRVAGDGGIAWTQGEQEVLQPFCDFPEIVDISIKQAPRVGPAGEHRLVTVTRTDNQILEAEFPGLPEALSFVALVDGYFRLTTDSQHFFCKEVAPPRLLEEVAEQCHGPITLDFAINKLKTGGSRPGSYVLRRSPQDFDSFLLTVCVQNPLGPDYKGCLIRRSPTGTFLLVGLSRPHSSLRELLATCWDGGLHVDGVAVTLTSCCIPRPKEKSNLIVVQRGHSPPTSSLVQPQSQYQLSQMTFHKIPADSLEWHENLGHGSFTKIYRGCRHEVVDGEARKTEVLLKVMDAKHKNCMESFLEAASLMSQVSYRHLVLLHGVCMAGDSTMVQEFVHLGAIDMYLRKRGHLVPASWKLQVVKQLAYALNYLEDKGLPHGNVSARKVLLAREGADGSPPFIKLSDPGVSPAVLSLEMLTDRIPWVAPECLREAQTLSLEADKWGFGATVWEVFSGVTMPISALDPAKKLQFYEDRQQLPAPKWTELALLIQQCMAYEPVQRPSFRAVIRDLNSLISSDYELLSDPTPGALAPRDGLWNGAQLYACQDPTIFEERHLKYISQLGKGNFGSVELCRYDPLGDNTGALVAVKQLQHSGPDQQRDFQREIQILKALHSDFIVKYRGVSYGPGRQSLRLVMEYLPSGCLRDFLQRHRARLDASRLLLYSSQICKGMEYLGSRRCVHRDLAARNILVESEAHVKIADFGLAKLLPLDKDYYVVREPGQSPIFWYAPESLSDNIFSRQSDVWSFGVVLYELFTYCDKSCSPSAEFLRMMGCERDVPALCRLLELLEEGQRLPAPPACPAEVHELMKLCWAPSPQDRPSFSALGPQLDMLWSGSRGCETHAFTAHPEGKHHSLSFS
JAK2, sequence (O60674 whole entry): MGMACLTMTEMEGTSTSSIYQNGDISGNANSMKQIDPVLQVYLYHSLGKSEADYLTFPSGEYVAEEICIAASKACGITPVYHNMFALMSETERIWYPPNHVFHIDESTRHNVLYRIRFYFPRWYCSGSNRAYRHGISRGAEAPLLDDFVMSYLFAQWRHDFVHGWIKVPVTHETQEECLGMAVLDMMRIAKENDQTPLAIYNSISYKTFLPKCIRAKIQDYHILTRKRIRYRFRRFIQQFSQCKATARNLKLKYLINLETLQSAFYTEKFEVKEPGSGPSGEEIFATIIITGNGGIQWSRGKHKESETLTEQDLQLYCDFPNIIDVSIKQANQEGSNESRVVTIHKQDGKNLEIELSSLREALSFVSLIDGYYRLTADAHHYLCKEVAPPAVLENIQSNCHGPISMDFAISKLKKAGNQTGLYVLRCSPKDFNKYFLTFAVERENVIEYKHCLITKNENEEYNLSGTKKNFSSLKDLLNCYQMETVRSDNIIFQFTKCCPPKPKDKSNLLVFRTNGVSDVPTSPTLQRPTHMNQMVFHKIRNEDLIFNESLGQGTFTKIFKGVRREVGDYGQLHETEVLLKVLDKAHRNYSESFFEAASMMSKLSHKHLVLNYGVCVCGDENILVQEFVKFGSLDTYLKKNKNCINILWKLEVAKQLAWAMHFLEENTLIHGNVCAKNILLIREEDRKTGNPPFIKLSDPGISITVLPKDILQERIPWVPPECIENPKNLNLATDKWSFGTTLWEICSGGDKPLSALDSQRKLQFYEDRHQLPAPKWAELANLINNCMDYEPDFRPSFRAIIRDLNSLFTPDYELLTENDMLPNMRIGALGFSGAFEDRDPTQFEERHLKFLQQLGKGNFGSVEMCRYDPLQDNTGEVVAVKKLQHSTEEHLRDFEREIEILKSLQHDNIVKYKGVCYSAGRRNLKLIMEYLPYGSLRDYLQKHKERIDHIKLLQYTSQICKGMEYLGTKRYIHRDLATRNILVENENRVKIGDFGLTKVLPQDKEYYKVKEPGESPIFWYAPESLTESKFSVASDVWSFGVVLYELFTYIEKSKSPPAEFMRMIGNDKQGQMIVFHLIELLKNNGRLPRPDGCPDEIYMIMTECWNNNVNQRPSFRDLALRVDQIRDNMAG
JAK1, sequence (P23458 whole entry): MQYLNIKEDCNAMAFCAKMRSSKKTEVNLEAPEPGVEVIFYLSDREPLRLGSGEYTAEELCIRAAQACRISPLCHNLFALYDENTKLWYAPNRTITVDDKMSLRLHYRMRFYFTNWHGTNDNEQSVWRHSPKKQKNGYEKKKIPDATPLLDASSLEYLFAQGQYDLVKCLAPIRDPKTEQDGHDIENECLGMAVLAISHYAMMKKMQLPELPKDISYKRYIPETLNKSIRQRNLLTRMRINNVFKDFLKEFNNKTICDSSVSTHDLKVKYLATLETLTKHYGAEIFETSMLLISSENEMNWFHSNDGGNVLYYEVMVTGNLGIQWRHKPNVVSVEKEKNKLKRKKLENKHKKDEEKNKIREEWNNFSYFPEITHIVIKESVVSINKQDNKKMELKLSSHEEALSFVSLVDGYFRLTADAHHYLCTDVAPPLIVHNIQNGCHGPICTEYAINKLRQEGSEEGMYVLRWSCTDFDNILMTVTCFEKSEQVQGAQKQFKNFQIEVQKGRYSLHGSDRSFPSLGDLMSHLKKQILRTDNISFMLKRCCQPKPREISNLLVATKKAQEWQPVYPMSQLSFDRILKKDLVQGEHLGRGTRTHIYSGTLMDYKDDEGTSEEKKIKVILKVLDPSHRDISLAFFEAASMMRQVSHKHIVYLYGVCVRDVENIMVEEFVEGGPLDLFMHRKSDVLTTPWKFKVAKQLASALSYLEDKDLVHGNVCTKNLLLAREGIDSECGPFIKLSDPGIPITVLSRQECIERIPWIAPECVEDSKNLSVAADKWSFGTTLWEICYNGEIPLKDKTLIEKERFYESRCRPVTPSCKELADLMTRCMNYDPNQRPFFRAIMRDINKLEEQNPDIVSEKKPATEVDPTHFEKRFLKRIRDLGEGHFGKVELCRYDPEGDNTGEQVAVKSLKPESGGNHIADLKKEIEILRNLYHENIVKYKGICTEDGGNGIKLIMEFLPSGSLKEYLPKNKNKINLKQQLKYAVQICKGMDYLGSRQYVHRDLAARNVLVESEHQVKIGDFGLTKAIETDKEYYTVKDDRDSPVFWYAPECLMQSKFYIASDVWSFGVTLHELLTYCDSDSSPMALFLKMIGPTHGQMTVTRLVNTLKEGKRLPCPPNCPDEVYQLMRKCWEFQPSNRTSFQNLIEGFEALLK

SMILES	IC50 [1] [nM]	IC50 [2] [nM]	IC50 [3] [nM]
O=C(CC1(n2cc(-c3ncnc4[nH]ccc34)cn2)CCS(=O)(=O)CC1)NCC(F)(F)F [Example 20, 2-(4-(4-(7H-pyrrolo[2,3-d]pyrimidin-4-yl)-1H-pyrazol-1-yl)-1,1-dioxotetrahydro-2H-thiopyran-4-yl)-N-(2,2,2-trifluoroethyl)acetamide]	20 to 50	> 50	> 50
N#CC1(Nc2ccnc(-c3ncnc4[nH]ccc34)n2)CCCC1 [Example 58, 1-((2-(7H-pyrrolo[2,3-d]pyrimidin-4-yl)pyrimidin-4-yl)amino)cyclopentanecarbonitrile]	> 50	> 50	> 50
O=C(CC1(n2cc(-c3c[nH]c4ncccc34)cn2)CCCC1)NCC(F)(F)F [Example 25, 2-(1-(4-(1H-pyrrolo[2,3-b]pyridin-3-yl)-1H-pyrazol-1-yl)cyclopentyl)-N-(2,2,2-trifluoroethyl) acetamide]	20 to 50	20 to 50	
N#CC1(Nc2ccnc(-c3ccnc4[nH]ccc34)n2)CCS(=O)(=O)CC1 [Example 53, 4-((2-(1H-pyrrolo[2,3-b]pyridin-4-yl)pyrimidin-4-yl)amino)tetrahydro-2H-thiopyran-4-carbo nitrile 1,1-dioxide]	> 50	20 to 50	> 50
NC(=O)CC1(n2cc(-c3c[nH]c4ncccc34)cn2)CCS(=O)(=O)CC1 [Example 18, 2-(4-(4-(1H-pyrrolo[2,3-b]pyridin-3-yl)-1H-pyrazol-1-yl)-1,1-dioxotetrahydro-2H-thiopyran-4-yl)acetamide]	< 20	< 20	> 50
CC(C)(CC(=O)NCC(F)(F)F)n1cc(-c2c[nH]c3ncccc23)cn1 [Example 28, 3-(4-(1H-pyrrolo[2,3-b]pyridin-3-yl)-1H-pyrazol-1-yl)-3-methyl-N-(2,2,2-trifluoroethyl)butanamide]	> 50	> 50	20 to 50
CS(=O)(=O)N1CC(Nc2nc(-c3c[nH]c4ncccc34)ncc2F)(C(=O)NCC(F)(F)F)C1 [Example 34]	> 50		> 50
CS(=O)(=O)N1CC(C#N)(Nc2ccnc(-c3ncnc4[nH]ccc34)n2)C1 [Example 49, 3-((2-(7H-pyrrolo[2,3-d]pyrimidin-4-yl)pyrimidin-4-yl)amino)-1-(methylsulfonyl) azetidine-3-carbonitrile]	> 50	20 to 50	> 50
CCS(=O)(=O)N1CC(C#N)(Nc2ccnc(-c3ncnc4[nH]ccc34)n2)C1 [Example 46, 3-((2-(7H-pyrrolo[2,3-d]pyrimidin-4-yl)pyrimidin-4-yl)amino)-1-(ethylsulfonyl)azetidine-3-carbonitrile]	> 50	> 50	> 50
CS(=O)(=O)N1CC(CC(=O)NCC(F)(F)F)(n2cc(-c3ncnc4[nH]ccc34)cn2)C1 [Example 12, 2-(3-(4-(7H-pyrrolo[2,3-d]pyrimidin-4-yl)-1H-pyrazol-1-yl)-1-(methylsulfonyl)azetidin-3-yl)-N-(2,2,2-trifluoroethyl)acetamide]	20 to 50	> 50	20 to 50
CS(=O)(=O)N1CCC(CC(=O)NCC(F)(F)F)(n2cc(-c3ccnc4[nH]ccc34)cn2)CC1 [Example 24, 2-(4-(4-(7H-pyrrolo[2,3-b]pyridin-4-yl)-1H-pyrazol-1-yl)-1-(methylsulfonyl)piperidin-4-yl)-N-(2,2,2-trifluoroethyl)acetamide]	20 to 50	> 50	> 50
CS(=O)(=O)N1CC(C#N)(Nc2ccnc(-c3c[nH]c4ncccc34)n2)C1 [Example 48, 3-((2-(1H-pyrrolo[2,3-b]pyridin-3-yl)pyrimidin-4-yl)amino)-1-(methylsulfonyl) azetidine-3-carbonitrile]	> 50	> 50	> 50
CCS(=O)(=O)N1CC(C#N)(Nc2ccnc(-c3ccnc4[nH]ccc34)n2)C1 [Example 47, 3-((2-(1H-pyrrolo[2,3-b]pyridin-4-yl)pyrimidin-4-yl)amino)-1-(ethylsulfonyl)azetidine-3-carbonitrile]		20 to 50	
O=C(NCC(F)(F)F)C1(Nc2nc(-c3c[nH]c4ncccc34)ncc2F)CCS(=O)(=O)CC1 [Example 44, 4-((5-fluoro-2-(1H-pyrrolo[2,3-b]pyridin-3-yl)pyrimidin-4-yl)amino)-N-(2,2,2-trifluoroethyl)tetrahydro-2H-thiopyran-4-carboxamide 1,1-dioxide]	> 50		20 to 50
O=C(CC1(n2cc(-c3ccnc4[nH]ccc34)cn2)CCCC1)NCC(F)(F)F [Example 27, 2-(1-(4-(1H-pyrrolo[2,3-b]pyridin-4-yl)-1H-pyrazol-1-yl)cyclopentyl)-N-(2,2,2-trifluoroethyl) acetamide]	20 to 50	> 50	> 50
CS(=O)(=O)N1CCC(CC#N)(n2cc(-c3c[nH]c4ncccc34)cn2)CC1 [Example 5]	< 20	< 20	
O=C(NCC(F)(F)F)C1(Nc2ccnc(-c3c[nH]c4ncccc34)n2)CN(S(=O)(=O)C2CC2)C1 [Example 33, 3-((2-(1H-pyrrolo[2,3-b]pyridin-3-yl)pyrimidin-4-yl)amino)-1-(cyclopropylsulfonyl)-N-(2,2,2-trifluoroethyl)azetidin-3-carboxamide]	> 50	20 to 50	> 50
N#CC1(Nc2ccnc(-c3ncnc4[nH]ccc34)n2)CCS(=O)(=O)CC1 [Example 52, 4-((2-(7H-pyrrolo[2,3-d]pyrimidin-4-yl)pyrimidin-4-yl)amino)tetrahydro-2H-thiopyran-4-carbonitrile 1,1-dioxide]	> 50	> 50	> 50
CCS(=O)(=O)N1CCC(Nc2ccnc(-c3c[nH]c4ncccc34)n2)(C(=O)NCC(F)(F)F)CC1 [Example 38, 4-((2-(1H-pyrrolo[2,3-b]pyridin-3-yl)pyrimidin-4-yl)amino)-1-(ethylsulfonyl)-N-(2,2,2-trifluoroethyl)piperidin-4-carboxamide]		20 to 50	
CCS(=O)(=O)N1CC(CC(=O)NCC(F)(F)F)(n2cc(-c3ncnc4[nH]ccc34)cn2)C1 [Example 8, 2-(3-(4-(1H-pyrrolo[2,3-d]pyrimidin-4-yl)-1H-pyrazol-1-yl)-1-(ethylsulfonyl)azetidin-3-yl)-N-(2,2,2-trifluoroethyl)acetamide]	> 50	> 50	> 50
CC[C@](C)(C#N)Nc1ccnc(-c2ccnc3[nH]ccc23)n1 [Example 62]	> 50	> 50	> 50
CS(=O)(=O)N1CCC(CC(=O)NCC(F)(F)F)(n2cc(-c3c[nH]c4ncccc34)cn2)CC1 [Example 22, 2-(4-(4-(7H-pyrrolo[2,3-b]pyridin-3-yl)-1H-pyrazol-1-yl)-1-(methylsulfonyl)piperidin-4-yl)-N-(2,2,2-trifluoroethyl)acetamide]	> 50	> 50	> 50
CCS(=O)(=O)N1CC(CC(N)=O)(n2cc(-c3ccnc4[nH]ccc34)cn2)C1 [Example 11, 2-(3-(4-(1H-pyrrolo[2,3-b]pyridin-4-yl)-1H-pyrazol-1-yl)-1-(ethylsulfonyl)azetidin-3-yl)acetamide]	> 50	> 50	> 50
CC[C@](C)(C#N)Nc1ccnc(-c2c[nH]c3ncccc23)n1 [Example 60]	> 50	20 to 50	> 50
O=C(NCC(F)(F)F)C1(Nc2nc(-c3c[nH]c4ncccc34)ncc2F)CN(S(=O)(=O)C2CC2)C1 [Example 36]	> 50	20 to 50	> 50
CCS(=O)(=O)N1CC(CC(=O)NCC(F)(F)F)(n2cc(-c3ccnc4[nH]ccc34)cn2)C1 [Example 9, 2-(3-(4-(1H-pyrrolo[2,3-b]pyridin-4-yl)-1H-pyrazol-1-yl)-1-(ethylsulfonyl)azetidin-3-yl)-N-(2,2,2-trifluoroethyl)acetamide]	> 50	> 50	> 50
O=C(CC1(n2cc(-c3ncnc4[nH]ccc34)cn2)CCCC1)NCC(F)(F)F [Example 26, 2-(1-(4-(1H-pyrrolo[2,3-b]pyrimidin-4-yl)-1H-pyrazol-1-yl)cyclopentyl)-N-(2,2,2-trifluoroethyl)acetamide]	20 to 50		
CCS(=O)(=O)N1CC(Nc2ccnc(-c3c[nH]c4ncccc34)n2)(C(=O)NCC(F)(F)F)C1 [Example 32, 3-((2-(1H-pyrrolo[2,3-b]pyridin-3-yl)pyrimidin-4-yl)amino)-1-(ethylsulfonyl)-N-(2,2,2-trifluoroethyl)azetidin-3-carboxamide]	> 50		> 50
CCS(=O)(=O)N1CC(CC#N)(n2cc(-c3c[nH]c4ncccc34)cn2)C1 [Example 1, 2-(3-(4-(1H-pyrrolo[2,3-b]pyridin-3-yl)-1H-pyrazol-1-yl)-1-(ethylsulfonyl)azetidin-3-yl)acetonitrile]			20 to 50
CS(=O)(=O)N1CC(Nc2ccnc(-c3c[nH]c4ncccc34)n2)(C(=O)NCC(F)(F)F)C1 [Example 31, 3-((2-(1H-pyrrolo[2,3-b]pyridin-3-yl)pyrimidin-4-yl)amino)-1-(methylsulfonyl)-N-(2,2,2-trifluoroethyl)azetidin-3-carboxamide]	> 50		> 50
